In US5034392A, “4-(3-(4-oxothiazolidinyl)butynylamines” (Hoechst-Roussel Pharmaceuticals Incorporated, priority 1990, dated 1991):
Where a name gives a salt, the structure may show the parent alone.

How the values were obtained:
[1] = phenyl-para-quinone writhing assay in mice (analgesia); assay type: in vivo
Source text: The compounds of the present invention are useful as analgesic agents due to their ability to alleviate pain in mammals. […] Exptl. Biol. Med., 95, 729 (1957)]. The analgesic activity of some of the compounds of the invention expressed in terms of percent inhibition of writhing is given in Table 1.

[2] = antihypertensive activity in the spontaneous hypertensive rat by the indirect tail cuff method; assay type: in vivo; conditions: at 50 mg/kg p.o, treated orally for three days, drop measured on the third day
Description: Antihypertensive activity is measured in the spontaneous hypertensive rat by the indirect tail cuff method. […] In this procedure a group of five animals is treated orally for three days with the test compound in relation to a control group of the same number. The drop in blood pressure is measured on the third day following administration.

Row | Compound | % Inhibition of Writhing ([1]; at 20 mg/kg s.c.) [%] | mm Hg decrease (decrease in mean arterial blood pressure) [2] [mm Hg] | further results
1 | CC1SCC(=O)N1CC#CCN1CCC(O)(c2ccccc2)CC1.O=C(O)C(=O)O (stereo not shown) [2-Methyl-3-(4-(4-hydroxy-4-phenylpiperidino)-2-butynyl)-4-oxothiazolidine oxalate] | 51 |  | 
2 | O=C(O)/C=C\C(=O)O.O=C(O)/C=C\C(=O)O.O=C1CSCN1CC#CCN1CCN(C(c2ccccc2)c2ccc(Cl)cc2)CC1 (stereo not shown) [3-(4-(1-(4-Chlorobenzhydryl)piperazino)-2-butynyl)-4-oxothiazolidine bis maleate] |  | 28 | 
3 | O=C1CSCN1CC#CCN1CCN(c2ccc(F)cc2)CC1 [3-(4-(1-(4-Fluorophenyl)piperazino)-2-butynyl-4-oxothiazolidine oxalate] |  | 71 | 
4 | O=C1CSCN1CC#CCN1CCN(c2ccncc2)CC1 [3-(4-(4-Pyridyl)piperazino)-2-butynyl)-4-oxothiazolidine sesquioxalate] |  | 30 | 
5 | O=C1CSCN1CC#CCN1CCC(c2noc3cc(Cl)ccc23)CC1 [3-(4-[3-(4-piperidyl)-6-chloro-benzisoxazole]-2-butynyl)-4-oxothiazolidine oxalate] | 39 |  | 
6 | COc1ccccc1N1CCN(CC#CCN2CSCC2=O)CC1 [3-[4-(1-(2-Methoxyphenyl)piperazino)-2-butynyl]-4-oxothiazolidine sesquioxalate] |  | 51 | 
7 | O=C1CSC2(CCCC2)N1CC#CCN1CCN(C(c2ccccc2)c2ccc(Cl)cc2)CC1 (stereo not shown) [4-(4-(1-(4-Chlorobenzhydryl)piperazino)-2-butynyl)-1-thia-4-azaspiro[4.4]nonane-3-one trisoxalate] | 30 |  | 
8 | N=C(N)NCCN1CCCCCCC1 [guanethidine, reference compound] |  | 20 | 
9 | CC(C)Cc1ccc(C(C)C(=O)O)cc1 (stereo not shown) [ibuprofen, reference compound] |  |  | % Inhibition of Writhing ([1]; standard, at 10.4 mg/kg s.c.): 50%
10 | CC(C)=CCN1CCC2(C)c3cc(O)ccc3CC1C2C (stereo not shown) [pentazocine, reference compound] |  |  | % Inhibition of Writhing ([1]; standard, at 1.3 mg/kg s.c.): 50%
